Article PMC3671111, “A Phase I, open-label, randomized, crossover study in three parallel groups to evaluate the effect of Rifampicin, Ketoconazole, and Omeprazole on the pharmacokinetics of THC/CBD oromucosal spray in healthy volunteers” (SpringerPlus, 2013)

Settings: male, human, in vivo, 9 days
From the text: A total of 36 healthy males subjects enrolled and were divided into three groups of 12. Within each group participants were randomized to one of two treatment sequences with six subjects receiving each sequence.
The safety endpoints were blood pressure, heart rate, ECG, clinical laboratory data (haematology and biochemistry), urinalysis, AEs and concomitant medications, recorded at each visit.

CO[C@H]1/C=C/O[C@@]2(C)Oc3c(C)c(O)c4c(O)c(c(/C=N/N5CCN(C)CC5)c(O)c4c3C2=O)NC(=O)/C(C)=C\C=C\[C@H](C)[C@H](O)[C@@H](C)[C@@H](O)[C@@H](C)[C@H](OC(C)=O)[C@@H]1C [Rifampicin, rifampicin]
Dysgeusia (TEAE): 1 (8) No. of subjects (%) | Headache (TEAE): 0 No. of subjects (%) | Somnolence (TEAE): 0 No. of subjects (%)
